From patent US20210308173A1, “PHARMACEUTICAL COMPOSITION COMPRISING CYCLODEXTRIN COMPLEXES OF ANETHOLE TRITHIONE OR DERIVATIVES THEREOF” (priority 2018, published 2021)
In brackets after ≈: the same amount, converted by molar mass.

Key:
[1] = Solubility testing in buffer containing media; assay type: physicochemical
Experimental: The solubility of AOL was tested in aqueous HP-β-CD and SBE-β-CD media at various concentrations and pH levels at room temperature. Some initial tests, where the pH of the formulations was adjusted only by addition of HCl or NaOH solutions, did evidence high variation in pH and difficulties to reach the target pH. Therefore, it was decided to prepare samples containing a buffering agent to get a stable pH and to facilitate the preparation of the formulations.
A citrate buffer was used at pH 5.5 and phosphate buffer were used at pH 6.5 and 7.5. The solubility (mg/mL) is the mean of 2 independent replicates.

[2] = Co-solvent addition: AOL solubility; assay type: physicochemical; conditions: for solubility at 4 h: aqueous with cosolvent or surfactant or cyclodextrin, thermodynamic from solid
Experimental: SBE-β-CD compatible excipients, namely polyethylene glycol and polysorbate (Tween), were evaluated for their AOL aqueous solubilizing power. Screening was carried out in same conditions as that of solubilization screening by cyclodextrins (see Example 3).
Briefly, 20% (w/w) solutions of each excipient were prepared. An excess of AOL was added and the solutions were analyzed by HPLC after 4 hours of stirring.
The effect of the combination of SBE-β-CD and Tween 80 was measured in a comparative assay by solubilizing AOL in: (A) Tween 80, 10% (w/w); (B) SBE-β-CD 10% (w/w) (C) Tween 80 and SBE-β-CD 10% (w/w) each; (D) Tween 80 20% (w/w) (E) SBE-β-CD 20% (w/w); and (F) Tween 80 and SBE-β-CD 20% (w/w) each.
Further assays, resumed in Tables 7 and 8, confirmed that Tween 80/SBE-β-CD is a promising excipient mixture for the solubilization of AOL.

[3] = Chemical stability of AOL in cyclodextrin solutions by HPLC; assay type: physicochemical; conditions: associated with HP-β-CD, conditions of Example 4
[4] = Stability versus formulation according to Dollo et al.; assay type: physicochemical; conditions: formulation of the invention vs formulation according to Dollo et al.
Text: Consequently, the formulations wherein anethole trithione and derivatives thereof present an improved solubility and stability are still an unmet need.

[5] = Optimal SBE-β-CD/AOL molar ratio for solubilization; assay type: physicochemical
Text: Using an optimized AOL/SBE-β-CD molar ratio enabled the Applicant to overcome all the aforementioned shortcomings. Indeed, the obtained formulation can be injected without exceeding the daily cyclodextrin administration threshold, solubilizes AOL without presenting a prohibiting viscosity. The chemical stability of AOL was maintained by such a formulation. […] Without willing to be bound by a theory the complex association (interaction outside the cavity of the cyclodextrin) enhances its solubility without hindering its bioavailability when the formulation is administered to a subject in need thereof.

[6] = Cyclodextrin solubilization screening of AOL; assay type: physicochemical; conditions: water, 25 °C, thermodynamic from solid, read-out: intrinsic solubility in water
[7] = background statement; cited from earlier work

solubility ([1]; buffered aqueous SBE-β-CD medium, pH 5.5, aqueous with cosolvent or surfactant or cyclodextrin, SBE-β-CD 30.0% (w/w), Citrate (100 μM), room temperature, read-out: AOL solubility): 675 µg/mL (≈ 2810 µM) | solubility ([1]; buffered aqueous SBE-β-CD medium, pH 6.5, aqueous with cosolvent or surfactant or cyclodextrin, SBE-β-CD 20.0% (w/w), Phosphate 6.5 (100 μM), room temperature, read-out: AOL solubility): 382 µg/mL (≈ 1590 µM) | solubility ([1]; buffered aqueous SBE-β-CD medium, pH 6.5, aqueous with cosolvent or surfactant or cyclodextrin, SBE-β-CD 30.0% (w/w), Phosphate 6.5 (100 μM), room temperature, read-out: AOL solubility): 676 µg/mL (≈ 2810 µM) | solubility ([1]; buffered aqueous SBE-β-CD medium, pH 7.5, aqueous with cosolvent or surfactant or cyclodextrin, SBE-β-CD 10.0% (w/w), Phosphate 7.5 (100 μM), room temperature, read-out: AOL solubility): 170 µg/mL (≈ 707 µM) | solubility ([1]; buffered aqueous SBE-β-CD medium, pH 7.5, aqueous with cosolvent or surfactant or cyclodextrin, SBE-β-CD 20.0% (w/w), Phosphate 7.5 (100 μM), room temperature, read-out: AOL solubility): 375 µg/mL (≈ 1560 µM) | solubility ([1]; buffered aqueous SBE-β-CD medium, pH 7.5, aqueous with cosolvent or surfactant or cyclodextrin, SBE-β-CD 30.0% (w/w), Phosphate 7.5 (100 μM), room temperature, read-out: AOL solubility): 685 µg/mL (≈ 2850 µM) | solubility ([1]; buffered aqueous cyclodextrin solution, pH 6.5, aqueous with cosolvent or surfactant or cyclodextrin, 40% SBE-β-cyclodextrin, pH 6.5 phosphate buffer, read-out: highest solubility value): 1210 µg/mL (≈ 5020 µM) | solubility ([1]; buffered aqueous cyclodextrin solution, pH 7.5, aqueous with cosolvent or surfactant or cyclodextrin, 40% HP-β-cyclodextrin, pH 7.5 phosphate buffer, read-out: highest solubility value): 723 µg/mL (≈ 3010 µM) | chemical stability on storage ([2]; Tween 80 at 20% (w/w) aqueous media): chemical stability issues | solubility at 4 h ([2]; aqueous HP-β-CD solution, HP-β-CD 20% (w/w), Cremophor 10% (w/w)): 545 µg/mL | solubility at 4 h ([2]; aqueous HP-β-CD solution, HP-β-CD 20% (w/w), Cremophor 20% (w/w)): 814 µg/mL | solubility at 4 h ([2]; aqueous HP-β-CD solution, HP-β-CD 20% (w/w), PVP 12PF 0.5% (w/w)): 296 µg/mL | solubility at 4 h ([2]; aqueous HP-β-CD solution, HP-β-CD 20% (w/w), PVP 12PF 2.0% (w/w)): 291 µg/mL | solubility at 4 h ([2]; aqueous HP-β-CD solution, HP-β-CD 20% (w/w), Tween 80 2% (w/w)): 329 µg/mL | solubility at 4 h ([2]; aqueous HP-β-CD solution, HP-β-CD 20% (w/w), Tween 80 10% (w/w)): 396 µg/mL | solubility at 4 h ([2]; aqueous HP-β-CD solution, HP-β-CD 20% (w/w), Tween 80 20% (w/w)): 660 µg/mL | solubility at 4 h ([2]; aqueous HP-β-CD solution, HP-β-CD 20% (w/w), co-solvent 0% (w/w)): 283 µg/mL | solubility at 4 h ([2]; aqueous HP-β-CD solution, HP-β-CD 30% (w/w), Cremophor 10% (w/w)): 642 µg/mL | solubility at 4 h ([2]; aqueous HP-β-CD solution, HP-β-CD 30% (w/w), PVP 12PF 0.5% (w/w)): 532 µg/mL | solubility at 4 h ([2]; aqueous HP-β-CD solution, HP-β-CD 30% (w/w), PVP 12PF 2.0% (w/w)): 517 µg/mL | solubility at 4 h ([2]; aqueous HP-β-CD solution, HP-β-CD 30% (w/w), Tween 80 2% (w/w)): 426 µg/mL | solubility at 4 h ([2]; aqueous HP-β-CD solution, HP-β-CD 30% (w/w), Tween 80 10% (w/w)): 439 µg/mL | solubility at 4 h ([2]; aqueous HP-β-CD solution, HP-β-CD 30% (w/w), Tween 80 20% (w/w)): 1680 µg/mL | solubility at 4 h ([2]; aqueous HP-β-CD solution, HP-β-CD 30% (w/w), co-solvent 0% (w/w)): 540 µg/mL | solubility at 4 h ([2]; aqueous SBE-β-CD solution, SBE-β-CD 20% (w/w), Cremophor 10% (w/w)): 644 µg/mL | solubility at 4 h ([2]; aqueous SBE-β-CD solution, SBE-β-CD 20% (w/w), PVP 12PF 0.5% (w/w)): 389 µg/mL | solubility at 4 h ([2]; aqueous SBE-β-CD solution, SBE-β-CD 20% (w/w), PVP 12PF 2.0% (w/w)): 371 µg/mL | solubility at 4 h ([2]; aqueous SBE-β-CD solution, SBE-β-CD 20% (w/w), Tween 80 2% (w/w)): 374 µg/mL | solubility at 4 h ([2]; aqueous SBE-β-CD solution, SBE-β-CD 20% (w/w), Tween 80 10% (w/w)): 587 µg/mL | solubility at 4 h ([2]; aqueous SBE-β-CD solution, SBE-β-CD 20% (w/w), Tween 80 20% (w/w)): 829 µg/mL | solubility at 4 h ([2]; aqueous SBE-β-CD solution, SBE-β-CD 20% (w/w), co-solvent 0% (w/w)): 375 µg/mL | solubility at 4 h ([2]; aqueous SBE-β-CD solution, SBE-β-CD 30% (w/w), Cremophor 10% (w/w)): 814 µg/mL | solubility at 4 h ([2]; aqueous SBE-β-CD solution, SBE-β-CD 30% (w/w), PVP 12PF 0.5% (w/w)): 668 µg/mL | solubility at 4 h ([2]; aqueous SBE-β-CD solution, SBE-β-CD 30% (w/w), PVP 12PF 2.0% (w/w)): 670 µg/mL | solubility at 4 h ([2]; aqueous SBE-β-CD solution, SBE-β-CD 30% (w/w), Tween 80 2% (w/w)): 630 µg/mL | solubility at 4 h ([2]; aqueous SBE-β-CD solution, SBE-β-CD 30% (w/w), Tween 80 10% (w/w)): 616 µg/mL | solubility at 4 h ([2]; aqueous SBE-β-CD solution, SBE-β-CD 30% (w/w), Tween 80 20% (w/w)): 1280 µg/mL | solubility at 4 h ([2]; aqueous SBE-β-CD solution, SBE-β-CD 30% (w/w), co-solvent 0% (w/w)): 685 µg/mL | influence of PVP 12PF on solubility ([2]; cyclodextrin media): did not had any influence | solubility in Tween 80 compared with SBE-β-CD solutions ([2]; same temperature and concentration of excipient): higher solubility in Tween 80 | chemical stability (HPLC impurities) [3]: chemical instability | stability of the active compound [4]: significantly more stable | SBE-β-CD/AOL molar ratio at which optimal solubilization was observed [5]: > 29 | solubility [6]: ~0.2 µg/mL (≈ 0.832 µM)
SMILES: COc1ccc(-c2cc(=S)ss2)cc1 [AOL, 5-(4-methoxyphenyl)-3H-1,2-dithiole-3-thione]
intrinsic aqueous solubility [7]: less than 0.3 mg/L
